{"source": "paper PMC314469", "about": "“Protein Interaction Networks by Proteome Peptide Scanning” (PLoS Biology, 2004)"}
{"tested_on": "Myo5 SH3 domain", "experiment": "SPOT analysis of cellulose-bound peptides (WISE), Myo5 SH3 domain (Dataset S4)", "format": "binding, Saccharomyces cerevisiae", "settings": "SPOT analysis of cellulose-bound 14-mer yeast proteome peptides, Myo5 SH3 domain; normalized value; mean where the peptide was synthesized more than once", "units": {"The normalized value in BLU units": "BLU"}}
{"sequence": "ALRKFGYPFSPNDP", "The normalized value in BLU units": 166.2}
{"sequence": "HEHNYAIPYTPATF", "The normalized value in BLU units": 129.1}
{"sequence": "EAYRLNYPELPRLT", "The normalized value in BLU units": 125.1}
{"sequence": "QEISLIDPSTPDKA", "The normalized value in BLU units": 155.1}
{"sequence": "TEEILPTPVQPGGH", "The normalized value in BLU units": 121.0}
{"sequence": "SEAKRKFPEAPEVP", "The normalized value in BLU units": 392.6}
{"sequence": "VELHFPKPEDPACI", "The normalized value in BLU units": 14.9}
{"sequence": "KGVLKEYPMRPYGS", "The normalized value in BLU units": 116.8}
{"sequence": "TQSGRMGPSEPKHR", "The normalized value in BLU units": 455.6}
{"sequence": "VAKSYGFPVPPKVN", "The normalized value in BLU units": 258.9}
{"sequence": "LAIRLCWPPAPVTL", "The normalized value in BLU units": 154.7}
{"sequence": "IPTSHAPPLPPTAP", "The normalized value in BLU units": 43593.6}
{"sequence": "SPKFLNSPDLPERT", "The normalized value in BLU units": 182.8}
{"sequence": "VFGTYLGPDAPLSK", "The normalized value in BLU units": 130.5}
{"sequence": "NETKLKFPTLPEVP", "The normalized value in BLU units": 254.7}
{"sequence": "SLQQFYNPESPIQP", "The normalized value in BLU units": 131.1}
{"sequence": "YFKELPPPSDPSSI", "The normalized value in BLU units": 164.8}
{"sequence": "AKSNKVSPEDPAVQ", "The normalized value in BLU units": 371.0}
{"sequence": "NLAPFTQPDFPFQT", "The normalized value in BLU units": 81.4}
{"sequence": "KLKSLNLPQLPPPK", "The normalized value in BLU units": 674.9}
{"sequence": "LQYHKKNPYSPLFS", "The normalized value in BLU units": 317.8}
{"sequence": "FEKRYYVPEDPSQD", "The normalized value in BLU units": 120.8}
{"sequence": "RFHVFCEPILPSVA", "The normalized value in BLU units": 158.0}
{"sequence": "ERDGRGVPLGPRNH", "The normalized value in BLU units": 121.3}
{"sequence": "INNTRLSPNSPTPP", "The normalized value in BLU units": 139.6}
{"sequence": "PEPTMGSPDAPPLV", "The normalized value in BLU units": 106.8}
{"sequence": "KAPYLVQPNVPEKH", "The normalized value in BLU units": 130.6}
{"sequence": "PPMAYNRPVYPPPQ", "The normalized value in BLU units": 6717.1}
{"tested_on": "Myo5 SH3 domain", "experiment": "SPOT analysis of cellulose-bound peptides (WISE), Myo5 SH3 domain (Dataset S4)", "format": "binding, Saccharomyces cerevisiae", "settings": "SPOT analysis of cellulose-bound peptides probed with Myo5 SH3 domain; normalized value", "units": {"The normalized value in BLU units (SPOT analysis, Myo5 SH3)": "BLU"}}
{"sequence": "AELMLRIPYLPGQN", "The normalized value in BLU units (SPOT analysis, Myo5 SH3)": 236.4}
{"sequence": "NLLSLENPVVPSHY", "The normalized value in BLU units (SPOT analysis, Myo5 SH3)": 75.6}
{"sequence": "DLMALKYPYFPTKM", "The normalized value in BLU units (SPOT analysis, Myo5 SH3)": 139.1}
{"sequence": "YEKALHFPAGPKST", "The normalized value in BLU units (SPOT analysis, Myo5 SH3)": 147.4}
{"sequence": "VAVPFTLPVIPYDL", "The normalized value in BLU units (SPOT analysis, Myo5 SH3)": 240.5}
{"sequence": "VPAILMTPICPRSL", "The normalized value in BLU units (SPOT analysis, Myo5 SH3)": 138.1}
{"sequence": "FLALFSDPARPFLT", "The normalized value in BLU units (SPOT analysis, Myo5 SH3)": 451.5}
{"sequence": "DLLGLSTPQSPTNS", "The normalized value in BLU units (SPOT analysis, Myo5 SH3)": 91.9}
{"sequence": "AELFLRRPIFPGRD", "The normalized value in BLU units (SPOT analysis, Myo5 SH3)": 215.9}
{"sequence": "DFPLYKSPAFPSSC", "The normalized value in BLU units (SPOT analysis, Myo5 SH3)": 172.8}
{"sequence": "ILPVLNIPLPPQEK", "The normalized value in BLU units (SPOT analysis, Myo5 SH3)": 21.6}
{"sequence": "ELRDLDIPLVPSPK", "The normalized value in BLU units (SPOT analysis, Myo5 SH3)": 75.3}
{"sequence": "SLISMETPEQPHQQ", "The normalized value in BLU units (SPOT analysis, Myo5 SH3)": 146.8}
{"sequence": "TPPPPPLPSVLSS", "The normalized value in BLU units (SPOT analysis, Myo5 SH3)": 25804}
{"sequence": "YLLELPDPLIPNDV", "The normalized value in BLU units (SPOT analysis, Myo5 SH3)": 162.7}
{"sequence": "IAECLGVPWEPVDL", "The normalized value in BLU units (SPOT analysis, Myo5 SH3)": 142.9}
{"sequence": "NPLYWLLPSHPYTI", "The normalized value in BLU units (SPOT analysis, Myo5 SH3)": 165.0}
{"sequence": "SLDNFYNPLGPEDR", "The normalized value in BLU units (SPOT analysis, Myo5 SH3)": 142.7}
{"sequence": "PETRMDLPFSPEVN", "The normalized value in BLU units (SPOT analysis, Myo5 SH3)": 130.3}
{"sequence": "EPIAHLFPPGPKNP", "The normalized value in BLU units (SPOT analysis, Myo5 SH3)": 356.3}
{"sequence": "ALKSLSNPSSPWQQ", "The normalized value in BLU units (SPOT analysis, Myo5 SH3)": 30.3}
{"tested_on": "Myo5 SH3 domain", "experiment": "SPOT analysis of cellulose-bound peptides (WISE), Myo5 SH3 domain (Dataset S4)", "format": "binding, Saccharomyces cerevisiae", "settings": "SPOT analysis of membrane-bound peptides, Myo5 SH3 domain; normalized value (see methods)", "units": {"The normalized value in BLU units": "BLU"}}
{"sequence": "INIAKAHPNFPIAL", "The normalized value in BLU units": 195.5}
{"sequence": "IAEWKNDPNNPNFE", "The normalized value in BLU units": 91.1}
{"sequence": "RRRTRLRPPTPLSQ", "The normalized value in BLU units": 1508.6}
{"sequence": "EWEEKLTPAGPLCP", "The normalized value in BLU units": 297.2}
{"sequence": "AFWWKKNPKTPSDY", "The normalized value in BLU units": 65.0}
{"sequence": "DPSDKSLPQQPFHK", "The normalized value in BLU units": 191.9}
{"sequence": "RMQQKNSPAFPTHS", "The normalized value in BLU units": 1283.9}
{"sequence": "KLHEKYFPDLPKEV", "The normalized value in BLU units": 110.4}
{"sequence": "NQIARQIPFQPWYL", "The normalized value in BLU units": 247.7}
{"sequence": "VSKAKLQPAKPQFT", "The normalized value in BLU units": 252.3}
{"sequence": "SMAMRPIPPLPTES", "The normalized value in BLU units": 1326.7}
{"sequence": "GFLSKKVPNTPVVV", "The normalized value in BLU units": 71.3}
{"sequence": "REGPKSCPRGPLCP", "The normalized value in BLU units": 188.5}
{"sequence": "NDLVKRFPEQPPLR", "The normalized value in BLU units": 21447.2}
{"sequence": "LNGLKSSPADPHLS", "The normalized value in BLU units": 152.9}
{"sequence": "VIIGKTTPISPDEE", "The normalized value in BLU units": 54.0}
{"sequence": "QFALKNTPITPGSC", "The normalized value in BLU units": 111.3}
{"sequence": "TYIWRYLPAPPVCI", "The normalized value in BLU units": 444.5}
{"sequence": "TQMKRLKPVSPGLR", "The normalized value in BLU units": 1445.1}
{"sequence": "TELLRIIPEMPKDL", "The normalized value in BLU units": 228.1}
{"sequence": "TPQSRFPPYSPLLP", "The normalized value in BLU units": 442.7}
{"sequence": "ILERKNIPRQPAIR", "The normalized value in BLU units": 602.9}
{"sequence": "ISHNKLSPSEPILC", "The normalized value in BLU units": 206.2}
{"sequence": "PIRLRKRPPPPPPV", "The normalized value in BLU units": 60274.0}
{"sequence": "LGPLKYAPHLPFSK", "The normalized value in BLU units": 427.6}
{"sequence": "LEFPKDYPLSPPKL", "The normalized value in BLU units": 134.8}
{"sequence": "KKIIKDVPGTPSDK", "The normalized value in BLU units": 162.7}
{"sequence": "VVPERVKPAPPVSR", "The normalized value in BLU units": 149.8}
{"tested_on": "Myo5 SH3 domain", "experiment": "SPOT analysis of cellulose-bound peptides (WISE), Myo5 SH3 domain (Dataset S4)", "format": "binding, Saccharomyces cerevisiae", "settings": "SPOT analysis of membrane-synthesized peptides probed with Myo5 SH3 domain; normalized value", "units": {"The normalized value in BLU units (SPOT analysis, Myo5 SH3)": "BLU"}}
{"sequence": "EIKDRDQPAVPPSP", "The normalized value in BLU units (SPOT analysis, Myo5 SH3)": 108.1}
{"sequence": "RLVNKLLPPHPFAD", "The normalized value in BLU units (SPOT analysis, Myo5 SH3)": 289.2}
{"sequence": "PPSIRKQPIAPDVL", "The normalized value in BLU units (SPOT analysis, Myo5 SH3)": 150.3}
{"sequence": "TGESRKAPLIPLLK", "The normalized value in BLU units (SPOT analysis, Myo5 SH3)": 214.2}
{"sequence": "INGEKACPFLPSSL", "The normalized value in BLU units (SPOT analysis, Myo5 SH3)": 183.7}
{"sequence": "DEFNRNTPPQPSLL", "The normalized value in BLU units (SPOT analysis, Myo5 SH3)": 118.0}
{"sequence": "DYRPKCIPCPPNGI", "The normalized value in BLU units (SPOT analysis, Myo5 SH3)": 154.3}
{"sequence": "NLSLRYAPNLPPVI", "The normalized value in BLU units (SPOT analysis, Myo5 SH3)": 778.6}
{"sequence": "IKMSRSPPRPPSLK", "The normalized value in BLU units (SPOT analysis, Myo5 SH3)": 17731.3}
{"sequence": "ALLRRTIPKRPFYH", "The normalized value in BLU units (SPOT analysis, Myo5 SH3)": 914.3}
{"sequence": "FASEKGAPFFPNKT", "The normalized value in BLU units (SPOT analysis, Myo5 SH3)": 358.8}
{"sequence": "QNGLRFNPDVPKLW", "The normalized value in BLU units (SPOT analysis, Myo5 SH3)": 260.1}
{"sequence": "YYYYKHYPNMPPIN", "The normalized value in BLU units (SPOT analysis, Myo5 SH3)": 287.9}
{"sequence": "TSISRISPQDPEAK", "The normalized value in BLU units (SPOT analysis, Myo5 SH3)": 194.2}
{"sequence": "AVGGKWEPGNPIAI", "The normalized value in BLU units (SPOT analysis, Myo5 SH3)": 78.4}
{"sequence": "EKLIKITPDTPFGF", "The normalized value in BLU units (SPOT analysis, Myo5 SH3)": 205.9}
{"sequence": "QVYEKTIPLFPPEI", "The normalized value in BLU units (SPOT analysis, Myo5 SH3)": 153.0}
{"sequence": "PIVKKNVPKPPPLV", "The normalized value in BLU units (SPOT analysis, Myo5 SH3)": 153.6}
{"sequence": "FGSNKNNPVPPELT", "The normalized value in BLU units (SPOT analysis, Myo5 SH3)": 171.5}
{"sequence": "NPFVRINPNRPEAA", "The normalized value in BLU units (SPOT analysis, Myo5 SH3)": 275.9}
{"sequence": "NYHHRETPPPPPSN", "The normalized value in BLU units (SPOT analysis, Myo5 SH3)": 317.8}
{"sequence": "IAGQRTFPEDPNYP", "The normalized value in BLU units (SPOT analysis, Myo5 SH3)": 171.7}
{"sequence": "LSKLRLSPENPSNT", "The normalized value in BLU units (SPOT analysis, Myo5 SH3)": 157.2}
{"sequence": "RPVYRLKPNAPFQY", "The normalized value in BLU units (SPOT analysis, Myo5 SH3)": 209.8}
{"sequence": "IPYEKRDPTSPAPL", "The normalized value in BLU units (SPOT analysis, Myo5 SH3)": 114.1}
{"sequence": "KKVIRNYPGHPEGT", "The normalized value in BLU units (SPOT analysis, Myo5 SH3)": 417.8}
{"sequence": "RRKLRTVPGVPLIH", "The normalized value in BLU units (SPOT analysis, Myo5 SH3)": 2011.1}
{"sequence": "GTRPKILPKIPTGA", "The normalized value in BLU units (SPOT analysis, Myo5 SH3)": 772.9}
